# In the oligonucleotide strings, read from the 5' end, every base follows the letter of its sugar. An asterisk marks phosphorothioate; unmarked linkages are phosphodiester. Other units and linkages are bracketed, terminal groups are in braces. A string of capitals states the bases alone. e = 2'-O-(2-methoxyethyl) (MOE); [5mC] = 5-methylcytosine; d = 2'-deoxy (DNA)
# Columns and labels:
# [1] = test system: DSS-induced colitis model; assay: Colitis Study B: body weight and colon length; format: in vivo, Swiss Webb mice
# Protocol: (§1) In a first group of 8 Swiss Webb mice, 20 mg/kg of ISIS 404071 was injected subcutaneously twice a week for 3 weeks. In a second group of 8 Swiss Webb mice, 20 mg/kg of ISIS 404057 was subcutaneously injected twice a week for 3 weeks. In a third control group of 8 Swiss Webb mice, 20 mg/kg of ISISI 421208 was injected subcutaneously twice a week for 3 weeks. Two control groups of 8 mice each were injected with PBS twice a week for 3 weeks. After the oligonucleotide treatment, 4% DSS in water was administered ad libitum for 6 days to all the experimental groups and one PBS control group.
# (§2) Mice in all groups were weighed at day 0 and daily after administration of DSS. Mice were sacrificed at the end of the study on day 7 after DSS was administered, their livers and colons were harvested for RNA analysis, and their body weights and colon lengths were measured.
# murine Factor XI mRNA [2] = assay: In vivo antisense inhibition of murine Factor XI: liver RNA analysis (Example 10); settings: BALB/c mice, relative to PBS control
# Protocol: Several antisense oligonucleotides targeted to murine Factor XI mRNA (GENBANK Accession No. NM_028066.1, incorporated herein as SEQ ID NO: 6) showing statistically significant dose-dependent inhibition from the in vitro study were evaluated in vivo. BALB/c mice were treated with ISIS 404057 ([…], target start site 487, incorporated herein as SEQ ID NO: 10) and ISIS 404071 ([…], target start site 869, incorporated herein as SEQ ID NO: 11).
# BALB/c mice were injected with 5 mg/kg, 10 mg/kg, 25 mg/kg, or 50 mg/kg of ISIS 404057 or ISIS 404071 twice a week for 3 weeks. A control group of mice was injected with phosphate buffered saline (PBS) twice a week for 3 weeks. Mice were sacrificed 5 days after receiving the last dose. Whole liver was harvested for RNA analysis and plasma was collected for protein analysis.
# RNA was extracted from liver tissue for real-time PCR analysis of Factor XI. […] Results are presented as percent inhibition of Factor XI, relative to control.
# murine Factor XI mRNA [3] = assay: Colitis Study B: Factor XI mRNA in the liver; format: in vivo, Swiss Webb mice; settings: DSS-induced colitis, day 7, 20 mg/kg s.c. twice a week for 3 weeks, percent change compared to the PBS control
# Protocol: as §1, §2
# RT-PCR analysis of Factor XI mRNA was performed. As presented in Table 27 and FIG. 10, antisense oligonucleotides targeting Factor XI achieved statistically significant dose-dependent reduction of murine Factor XI over the PBS control in the liver. All the measurements are normalized to cyclophilin.
# All the results in Table 27 are expressed as percent change compared to the PBS control.
# [4] = test system: DSS-induced colitis model; assay: Colitis Study F: body weight, stool scores, colon length and weight; format: in vivo, Swiss Webb mice; settings: DSS-treated mice, 50 mg/kg, Day 8
# bradykinin = assay: Colitis Study D: bradykinin levels in colon; format: in vivo, Swiss Webb mice; settings: for Bradykinin levels in colon: DSS-treated mice
# Protocol: In a first group of 8 Swiss Webb mice, 10 mg/kg of ISIS 404071 was injected subcutaneously twice a week for 3 weeks. In a second group of 8 Swiss Webb mice, 20 mg/kg of ISIS 404057 was subcutaneously injected twice a week for 3 weeks. In a third control group of 8 Swiss Webb mice, 40 mg/kg of ISISI 404057 was injected subcutaneously twice a week for 3 weeks. Two control groups of 8 mice each were injected with PBS twice a week for 3 weeks. After the oligonucleotide treatment, 4% DSS in water was administered ad libitum for 7 days to all the experimental groups and one PBS control group.
# The effect of antisense inhibition of Factor XI on kinin levels in the colon was evaluated (Phoenix Pharmaceuticals, Burlingame, Calif.) and the results are presented in Table 32.
# [5] = DSS-induced colitis, day 7, 20 mg/kg s.c. twice a week for 3 weeks, percent change compared to the PBS control
sequence,measurement,setting,value
"TGGTAATCCACTTTCAGAGG (eT*eG*eG*eT*eA*dA*dT*d[5mC]*d[5mC]*dA*d[5mC]*dT*dT*dT*d[5mC]*eA*eG*eA*eG*eG) [ISIS 404071, 5-10-5 MOE gapmer targeting murine Factor XI, target start site 869]",body weight (in words),"[1]; Colitis Study B, FIG. 9",did not have any significant change in body weight
same,Body weight,[1]; [5],−10%
same,Colon length,[1]; [5],−11%
same,% inhibition,murine Factor XI mRNA [2]; 5 mg/kg twice a week for 3 weeks,72%
same,% inhibition,murine Factor XI mRNA [2]; 10 mg/kg twice a week for 3 weeks,82%
same,% inhibition,murine Factor XI mRNA [2]; 25 mg/kg twice a week for 3 weeks,93%
same,% inhibition,murine Factor XI mRNA [2]; 50 mg/kg twice a week for 3 weeks,96%
same,Liver Factor XI mRNA,murine Factor XI mRNA [3],−75%
same,Stool score,[4],2
same,bradykinin levels (in words),bradykinin; Colitis Study D,decreased
same,Bradykinin levels in colon,bradykinin; 10 mpk,0.03 ng/mg protein
same,Bradykinin levels in colon,bradykinin; 20 mpk,0.00 ng/mg protein
same,Bradykinin levels in colon,bradykinin; 40 mpk,0.02 ng/mg protein

# From patent US20120083522A1, “MODULATION OF INFLAMMATORY RESPONSES BY FACTOR XI” (Isis Pharmaceuitcals, inc., priority 2009, published 2012)
